Measurements from patent US20030228308A1, “Isolated peptides which bind to HLA-Cw6 molecules and uses thereof” (priority 2002, published 2003).

Assays:
autologous EBV-B cells = experiment: 51Cr release lysis of peptide-incubated autologous EBV-B cells by CTL clone; format: cell-based, human; conditions: effector:target 10:1, chromium release after 4 hours; for lysis (chromium release): 1 μg/ml of peptide, 15 minutes
Experimental: A set of 16 amino acid long, MAGE-1 derived peptides were prepared, using standard solid phase methodologies.
The peptides, which overlapped by 12 residues and covered the entire MAGE-1 amino acid sequence, were incubated with autologous EBV-B cells that had been labelled with Na(^51Cr)O4. The cells were incubated for 15 minutes in the presence of 1 μg/ml of peptide, and then tested for lysis with the T cells, at effector:target ratios of 10:1. Chromium release was measured after 4 hours.
It corresponds to amino acids 230-238 of MAGE-1. The shorter peptide was tested, in the same manner as the longer ones.

EBV-B cells = experiment: TNF production by CTL co-cultured with fixed EBV-B cells pulsed with the shorter peptide; format: cell-based, human; conditions: PFA-fixed EBV-B cells pulsed with peptide; overnight co-culture with 5,000 CTLs; WEHI 164 clone 13 readout
Experimental: A MAGE-1 expressing tumor cell line, MZ2-MEL.43 was obtained from a patient who tested positive for HLA-Cw6 expression. These cells either were, or were not contacted with gamma interferon (100 U/ml), 48 hours before lysis studies. EBV-B cells were also used. These cells naturally produce TNF. They were fixed with PFA (1% in PBS) for 10 minutes at room temperature, washed twice with Hank's medium, and either pulsed or not with the shorter peptide.
Stimulator cells (2×10^4) were distributed in flat bottom microwells, and cocultured with 5,000 CTLs, in a total volume of 150 μl of complete IMDM, supplemented with 25 U/ml of IL-2.
TNF production was measured, following overnight co-culture, by testing for toxicity of supernatant on TNF sensitive, WEHI 164 clone 13 cells.

Sequence | lysis (chromium release) (autologous EBV-B cells) | TNF production by CTL (EBV-B cells) | EC50 (autologous EBV-B cells; read-out: peptide concentration giving half maximal lysis) [nM]
DGREHSAYGEPRKLLT (H. sapiens) [SEQ ID NO:1, amino acids 225-240 of MAGE-1] | positive |  | 
HSAYGEPRKLLTQDLV (H. sapiens) [SEQ ID NO:2, amino acids 229-244 of MAGE-1] | positive |  | 
SAYGEPRKL |  | did stimulate TNF production | ~6
